Calls of active or inactive are those of the source. The rule behind the calls is not given here.
Experiments:
[1] = molecular target: Hepatocyte growth factor receptor (Homo sapiens) (UniProt P08581); experiment: Inhibition of Met expressed human HCT116 cells by immunoblotting assay; type: cell-based; conditions: HCT-116
Mus musculus [2] = experiment: Toxicity in human HCT116 cells xenografted nu/nu mouse assessed as mortality at > 0.375 mg/kg, ip; type: organism-based, HCT-116; parameters: dose 0.375 mg/kg, route intraperitoneal; conditions: in vivo
Mus musculus [3] = experiment: Toxicity in human HCT116 cells xenografted nu/nu mouse assessed as body weight loss at > 0.375 mg/kg, ip measured post compound withdrawal; type: organism-based, HCT-116; parameters: dose 0.375 mg/kg, route intraperitoneal; conditions: in vivo
Mus musculus [4] = experiment: Reduction in PDGFRbeta level in tumor of human HCT116 cells xenografted in nu/nu mouse at 0.25 mg/kg, ip dosed daily for over 2 weeks by Western blot; type: functional, organism-based; parameters: dose 0.25 mg/kg; conditions: HCT-116
Mus musculus [5] = experiment: Toxicity in human HCT116 cells xenografted nu/nu mouse assessed as mortality at > 0.375 mg/kg, ip measured post compound withdrawal; type: organism-based, HCT-116; parameters: dose 0.375 mg/kg, route intraperitoneal; conditions: in vivo
HCT-116 = experiment: Antitumor activity against human HCT116 cells xenografted in nu/nu mouse model at 0.25 mg/kg, ip dosed daily for over 2 weeks; type: functional, organism-based; parameters: dose 0.25 mg/kg
Oryctolagus cuniculus [6] = organism: Oryctolagus cuniculus; experiment: Inhibition of cotranslational processing of human PDGFRalpha in rabbit reticulocyte assessed as [35S-methionine] incorporation using canine pancreatic microsomal membranes by SDS-PAGE analysis; type: functional, microsomes; conditions: Microsome
Mus musculus [7] = experiment: Toxicity in human HCT116 cells xenografted nu/nu mouse assessed as body weight loss at > 0.375 mg/kg, ip; type: organism-based, HCT-116; parameters: dose 0.375 mg/kg, route intraperitoneal; conditions: in vivo
Mus musculus [8] = experiment: Toxicity in human HCT116 cells xenografted nu/nu mouse assessed as liver histology changes at 0.25 mg/kg, ip dosed daily for over 2 weeks; type: organism-based, HCT-116; parameters: dose 0.25 mg/kg, route intraperitoneal; conditions: in vivo, 336 h
Mus musculus [9] = experiment: Reduction in VEGFR2 level in tumor of human HCT116 cells xenografted in nu/nu mouse at 0.25 mg/kg, ip dosed daily for over 2 weeks by Western blot; type: functional, organism-based; parameters: dose 0.25 mg/kg; conditions: HCT-116
Mus musculus [10] = experiment: Reduction in VEGFR2 level in liver of human HCT116 cells xenografted in nu/nu mouse at 0.25 mg/kg, ip dosed daily for over 2 weeks by Western blot; type: functional, organism-based; parameters: dose 0.25 mg/kg; conditions: HCT-116
Mus musculus [11] = experiment: Toxicity in human HCT116 cells xenografted nu/nu mouse assessed as kidney histology changes at 0.25 mg/kg, ip dosed daily for over 2 weeks; type: organism-based, HCT-116; parameters: dose 0.25 mg/kg, route intraperitoneal; conditions: in vivo, 336 h
Mus musculus [12] = experiment: Irreversible toxicity in human HCT116 cells xenografted nu/nu mouse at > 0.375 mg/kg, ip measured post compound withdrawal; type: organism-based, HCT-116; parameters: dose 0.375 mg/kg, route intraperitoneal; conditions: in vivo
Oryctolagus cuniculus [13] = organism: Oryctolagus cuniculus; experiment: Inhibition of cotranslational processing of in rabbit reticulocyte assessed as [35S-methionine] incorporation using canine pancreatic microsomal membranes by SDS-PAGE analysis; type: functional, microsomes; conditions: Microsome
Mus musculus [14] = experiment: Toxicity in human HCT116 cells xenografted nu/nu mouse assessed as weight loss at 0.25 mg/kg, ip dosed daily for over 2 weeks; type: organism-based, HCT-116; parameters: dose 0.25 mg/kg, route intraperitoneal; conditions: in vivo, 336 h

Sequence of Hepatocyte growth factor receptor (Homo sapiens) (P08581 whole entry): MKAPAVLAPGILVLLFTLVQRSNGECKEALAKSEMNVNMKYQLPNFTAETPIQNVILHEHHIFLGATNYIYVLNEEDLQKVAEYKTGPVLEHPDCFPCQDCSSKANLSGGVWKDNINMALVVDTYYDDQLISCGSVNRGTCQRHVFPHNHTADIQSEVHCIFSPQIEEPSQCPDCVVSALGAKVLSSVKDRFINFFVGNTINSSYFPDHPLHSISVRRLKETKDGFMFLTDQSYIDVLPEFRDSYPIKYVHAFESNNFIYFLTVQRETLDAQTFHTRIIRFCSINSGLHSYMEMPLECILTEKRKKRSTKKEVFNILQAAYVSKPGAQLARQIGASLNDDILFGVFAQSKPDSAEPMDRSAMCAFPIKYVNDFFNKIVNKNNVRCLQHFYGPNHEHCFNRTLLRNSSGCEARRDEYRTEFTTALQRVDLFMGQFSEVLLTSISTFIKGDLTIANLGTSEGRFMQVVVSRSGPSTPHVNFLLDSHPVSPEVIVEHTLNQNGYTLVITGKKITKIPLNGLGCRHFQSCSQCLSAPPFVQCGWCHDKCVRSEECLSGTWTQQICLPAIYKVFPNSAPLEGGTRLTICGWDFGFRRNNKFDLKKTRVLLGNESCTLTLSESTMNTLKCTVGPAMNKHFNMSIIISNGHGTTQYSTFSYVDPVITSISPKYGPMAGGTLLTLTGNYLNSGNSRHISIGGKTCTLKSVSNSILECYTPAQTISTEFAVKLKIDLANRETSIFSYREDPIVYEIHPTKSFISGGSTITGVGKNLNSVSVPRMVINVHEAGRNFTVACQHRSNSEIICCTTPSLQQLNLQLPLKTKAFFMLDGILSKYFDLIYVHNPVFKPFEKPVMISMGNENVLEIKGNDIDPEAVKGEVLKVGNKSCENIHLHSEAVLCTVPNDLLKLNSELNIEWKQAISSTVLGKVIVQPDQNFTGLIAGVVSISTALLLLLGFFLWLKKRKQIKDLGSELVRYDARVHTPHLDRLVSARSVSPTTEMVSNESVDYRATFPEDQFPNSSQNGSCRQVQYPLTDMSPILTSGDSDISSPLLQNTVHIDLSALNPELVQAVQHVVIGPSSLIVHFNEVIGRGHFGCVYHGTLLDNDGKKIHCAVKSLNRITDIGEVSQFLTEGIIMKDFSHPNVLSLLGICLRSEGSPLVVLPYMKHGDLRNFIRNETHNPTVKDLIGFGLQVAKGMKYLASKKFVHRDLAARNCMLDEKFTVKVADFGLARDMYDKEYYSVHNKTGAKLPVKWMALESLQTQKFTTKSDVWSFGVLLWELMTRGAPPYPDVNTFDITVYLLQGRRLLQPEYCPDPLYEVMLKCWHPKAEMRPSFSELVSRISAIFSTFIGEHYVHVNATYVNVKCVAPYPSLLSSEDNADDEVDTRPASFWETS

`CC[C@H](C)[C@H]1C(=O)N(C)[C@@H](C)C(=O)O[C@H](C(C)(C)C)C[C@@H](C)C[C@H](O)[C@H](C)C2=N[C@@H](/C=C(\C)C(=O)N[C@@H](Cc3ccc(OC)cc3)C(=O)N(C)[C@@H](C)C(=O)N1C)CS2` was tested, and the inhibition [1] was “Active”.
With `COc1ccc(C[C@@H]2NC(=O)/C(C)=C/[C@H]3CSC(=N3)[C@@H](C)[C@@H](O)C[C@H](C)C[C@@H](C(C)(C)C)OC(=O)[C@@H]3CCCN3C(=O)[C@H](C)N(C)C(=O)[C@H](C)N(C)C2=O)cc1` the inhibition [1] was “inactive”.
In the case of `CC[C@H](C)[C@H]1C(=O)N2CCC[C@H]2C(=O)O[C@H](C(C)(C)C)C[C@@H](C)C[C@H](O)[C@H](C)C2=N[C@@H](CCC(=O)N[C@@H](Cc3ccc(OC)cc3)C(=O)N(C)[C@@H](C)C(=O)N1C)CS2` [APRATOXIN S4], the Activity (Mus musculus [2]) is reported as “Non-toxic”, the Activity (Mus musculus [3]) is reported as “Non-toxic” and the Activity (Mus musculus [4]) is reported as “Active”. For the same compound, the Activity (Mus musculus [5]) was “Non-toxic”, the Activity (HCT-116) was “Active” and the inhibition (Oryctolagus cuniculus [6]) was “Active”. The Activity (Mus musculus [7]) was “Non-toxic”, the Activity (Mus musculus [8]) was “Non-toxic” and the Activity (Mus musculus [9]) was “Active”. For the same compound, the Activity (Mus musculus [10]) was “inactive”, the Activity (Mus musculus [11]) was “Non-toxic” and the Activity (Mus musculus [12]) was “Non-toxic”. For the same compound, the inhibition (Oryctolagus cuniculus [13]) was “Dose-dependent effect” and the Activity (Mus musculus [14]) was “Non-toxic”.
In the case of `CC[C@H](C)[C@H]1C(=O)N2CCC[C@H]2C(=O)O[C@H](C(C)(C)C)C[C@@H](C)C[C@H](O)[C@H](C)C2=N[C@@H](/C=C(\C)C(=O)N[C@@H](C)C(=O)N(C)[C@@H](C)C(=O)N1C)CS2`, the inhibition [1] is reported as “inactive”.

Reference: ChEMBL document CHEMBL2021867, “Systematic Chemical Mutagenesis Identifies a Potent Novel Apratoxin A/E Hybrid with Improved in Vivo Antitumor Activity” (ACS Med Chem Lett, 2011)
